From ChEMBL document CHEMBL5338753, “Stapled Peptides as Direct Inhibitors of Nrf2-sMAF Transcription Factors” (J Med Chem, 2023)
The source made the active and inactive calls. The calls are words filed in the database; no cut-off is given here. Positions of bridges follow the written chain, without caps; N, C: chain ends. Non-standard residues stand in square brackets, D forms with d. Residues, ends and D or L forms follow the SMILES beside them. ξ: configuration not given here. *: point of attachment. Biotin = O=C1N[C@H]2[C@H](CS[C@H]2CCCCC(=O)*)N1; R5 = C=CCCC[C@@](C)(N)C(=O)O; ξIle = CC[C@H](C)C(N)C(=O)O; Ahx = NCCCCCC(=O)O

Key:
[1] = molecular target: T1, Nuclear factor erythroid 2-related factor 2 (Homo sapiens) (UniProt Q16236); experiment: Inhibition of human Nrf2 in HEK-293T cells expressing ARE-firefly luciferase and TK-Renilla luciferase at 0 to 100 uM incubated for 16 hrs by Dual-Luciferase reporter based luminometer analysis; type: cell-based; conditions: dose 0-100 µM
T1 sequence (whole entry): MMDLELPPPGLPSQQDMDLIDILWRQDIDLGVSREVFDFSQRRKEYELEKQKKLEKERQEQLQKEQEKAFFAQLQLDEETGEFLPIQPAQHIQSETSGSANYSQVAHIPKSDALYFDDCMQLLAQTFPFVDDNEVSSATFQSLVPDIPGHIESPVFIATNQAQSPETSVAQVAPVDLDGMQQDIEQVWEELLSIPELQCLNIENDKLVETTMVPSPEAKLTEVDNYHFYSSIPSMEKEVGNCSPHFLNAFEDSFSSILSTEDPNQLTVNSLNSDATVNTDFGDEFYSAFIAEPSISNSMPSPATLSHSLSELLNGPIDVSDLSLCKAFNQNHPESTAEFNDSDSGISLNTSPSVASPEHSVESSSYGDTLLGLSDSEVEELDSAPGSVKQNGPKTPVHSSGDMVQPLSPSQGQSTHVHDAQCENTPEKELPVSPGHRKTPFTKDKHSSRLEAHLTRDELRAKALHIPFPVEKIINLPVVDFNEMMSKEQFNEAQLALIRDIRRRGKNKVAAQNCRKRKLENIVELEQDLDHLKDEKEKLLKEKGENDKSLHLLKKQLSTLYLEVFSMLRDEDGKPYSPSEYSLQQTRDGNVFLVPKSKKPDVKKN

[2] = molecular target: T1, Nuclear factor erythroid 2-related factor 2 (Homo sapiens); experiment: Inhibition of human Nrf2 in HEK-293T cells expressing NQO1-ARE-firefly luciferase and TK-Renilla luciferase at 50 uM incubated for 16 hrs by Dual-Luciferase reporter based luminometer analysis; type: cell-based
[3] = Stability of compound assessed as proteinase K (unknown origin) mediated compound degradation at 55 uM measured upto 24 hrs by LC/MS analysis; type: ADME; conditions: human
Albumin = Albumin (Bos taurus, UniProt P02769); experiment: Binding affinity to bovine serum albumin at 1 uM by SPR analysis; conditions: cattle
[4] = molecular target: T2, Transcription factor MafG (Homo sapiens, UniProt O15525); experiment: Binding affinity to human His-tagged MafG expressed in Escherichia coli Rosetta (DE3) incubated in presence of unlabeled peptide by immunoprecipitation assay
[5] = molecular target: T2, Transcription factor MafG; experiment: Binding affinity to human His-tagged MafG assessed as dissociation constant incubated for 10 mins by SPR analysis
[6] = molecular target: T2, Transcription factor MafG; experiment: Binding affinity to human His-tagged MafG expressed in Escherichia coli Rosetta (DE3) by immunoprecipitation assay
[7] = Stability of compound assessed as proteinase K (unknown origin) mediated compound degradation at 55 uM measured after 40 mins by LC/MS analysis; type: ADME; conditions: human
[8] = molecular target: T2, Transcription factor MafG; experiment: Binding affinity to human His-tagged MafG at 1 uM incubated for 10 mins with 188 to 3000 nM protein by SPR analysis

T2 sequence (O15525 whole entry): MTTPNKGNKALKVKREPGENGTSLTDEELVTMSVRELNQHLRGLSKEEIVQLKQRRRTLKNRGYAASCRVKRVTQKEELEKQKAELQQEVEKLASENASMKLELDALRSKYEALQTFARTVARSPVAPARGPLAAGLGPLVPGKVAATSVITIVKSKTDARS
Chain of Albumin (P02769 whole entry): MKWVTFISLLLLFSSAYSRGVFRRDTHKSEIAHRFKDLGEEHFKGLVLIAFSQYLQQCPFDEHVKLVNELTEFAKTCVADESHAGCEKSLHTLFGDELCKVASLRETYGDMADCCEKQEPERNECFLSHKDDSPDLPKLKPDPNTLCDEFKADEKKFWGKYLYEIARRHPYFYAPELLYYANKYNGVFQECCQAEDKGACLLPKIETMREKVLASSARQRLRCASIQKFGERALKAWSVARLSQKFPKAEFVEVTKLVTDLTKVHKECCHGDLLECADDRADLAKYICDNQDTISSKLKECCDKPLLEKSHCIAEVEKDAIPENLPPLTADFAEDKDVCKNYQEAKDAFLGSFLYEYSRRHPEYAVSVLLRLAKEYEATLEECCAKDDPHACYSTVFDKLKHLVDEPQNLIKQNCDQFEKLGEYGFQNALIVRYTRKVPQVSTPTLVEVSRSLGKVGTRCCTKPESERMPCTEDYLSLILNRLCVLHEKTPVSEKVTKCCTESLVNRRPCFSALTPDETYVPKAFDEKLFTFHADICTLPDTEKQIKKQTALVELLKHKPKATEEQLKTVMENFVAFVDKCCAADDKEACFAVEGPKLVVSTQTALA

Compound | inhibition [2] | Activity [6] | further results
CC(=O)N[C@@H](C)C(=O)N[C@H](C(=O)N[C@@H](CCC(=O)O)C(=O)N[C@@H](C)C(=O)N[C@@H](CCC(=O)O)C(=O)N[C@]1(C)CCC/C=C\CCC[C@](C)(C(=O)N[C@@H](C)C(=O)N[C@@H](CCCCN)C(=O)N[C@@H](CC(=O)O)C(=O)N[C@@H](CCC(=O)O)C(=O)N[C@@H](C)C(=O)N[C@@H](CCC(=O)O)C(N)=O)NC(=O)[C@H](CC(=O)O)NC(=O)[C@H](C)NC(=O)[C@H](CC(=O)O)NC1=O)C(C)C (Ac-AVEAE[R5]DAD[R5]AKDEAE-NH2; staple (Z) 6-10) |  |  | inhibition [1]: inactive
Ac-DLDHLKDEKEKLLKEK-NH2 | inactive |  | 
CC(=O)N[C@@H](CC(=O)O)C(=O)N[C@@H](CCC(=O)O)C(=O)N[C@@H](CCCCN)C(=O)N[C@@H](CCC(=O)O)C(=O)N[C@@H](CCCCN)C(=O)N[C@@H](CC(C)C)C(=O)N[C@]1(C)CCC/C=C\CCC[C@](C)(C(=O)N[C@@H](CCC(=O)O)C(=O)N[C@@H](CC(N)=O)C(=O)N[C@@H](CC(=O)O)C(=O)N[C@@H](CCCCN)C(=O)N[C@@H](CO)C(N)=O)NC(=O)[C@H](CCCCN)NC(=O)[C@H](CCC(=O)O)NC(=O)[C@H](CCCCN)NC1=O (Ac-DEKEKL[R5]KEK[R5]ENDKS-NH2; staple (Z) 7-11) | inactive |  | Stability [3]: Stable
CC[C@H](C)C(NC(=O)CCCCCNC(=O)CCCC[C@@H]1SC[C@@H]2NC(=O)N[C@@H]21)C(=O)N[C@H](C(=O)N[C@@H](CCC(=O)O)C(=O)N[C@@H](CC(C)C)C(=O)N[C@@H](CCC(=O)O)C(=O)N[C@]1(C)CCC/C=C\CCC[C@](C)(C(=O)N[C@@H](CC(C)C)C(=O)N[C@@H](CCCCN)C(=O)N[C@@H](CC(=O)O)C(=O)N[C@@H](CCC(=O)O)C(=O)N[C@@H](CCCCN)C(=O)N[C@@H](CCC(=O)O)C(N)=O)NC(=O)[C@H](CC(=O)O)NC(=O)[C@H](CC(C)C)NC(=O)[C@H](CC(=O)O)NC1=O)C(C)C (stereo partly specified) ({Biotin-Ahx}-[ξIle]VELE[R5]DLD[R5]LKDEKE-NH2; staple (Z) 6-10) |  | Active | Activity (Albumin): Not Active; Activity [4]: Active; Kd [5]: 337 nM
Ac-IVELEQDLDHLKDEKE-NH2 | inactive |  | Stability [3]: Unstable
Ac-DEKEKLLKEKGENDKS-NH2 | inactive |  | 
CC(=O)N[C@@H](CC(=O)O)C(=O)N[C@@H](CC(C)C)C(=O)N[C@@H](CC(=O)O)C(=O)N[C@@H](Cc1c[nH]cn1)C(=O)N[C@@H](CC(C)C)C(=O)N[C@]1(C)CCC/C=C\CCC[C@](C)(C(=O)N[C@@H](CCCCN)C(=O)N[C@@H](CC(C)C)C(=O)N[C@@H](CC(C)C)C(=O)N[C@@H](CCCCN)C(=O)N[C@@H](CCC(=O)O)C(=O)N[C@@H](CCCCN)C(N)=O)NC(=O)[C@H](CCCCN)NC(=O)[C@H](CCC(=O)O)NC(=O)[C@H](CC(=O)O)NC1=O (Ac-DLDHL[R5]DEK[R5]KLLKEK-NH2; staple (Z) 6-10) | inactive |  | Stability [7]: Unstable
CC(C)C[C@H](NC(=O)[C@H](CC(=O)O)NC(=O)CCCCCNC(=O)CCCC[C@@H]1SC[C@@H]2NC(=O)N[C@@H]21)C(=O)N[C@@H](CC(=O)O)C(=O)N[C@@H](Cc1c[nH]cn1)C(=O)N[C@@H](CC(C)C)C(=O)N[C@]1(C)CCC/C=C\CCC[C@](C)(C(=O)N[C@@H](CCCCN)C(=O)N[C@@H](CC(C)C)C(=O)N[C@@H](CC(C)C)C(=O)N[C@@H](CCCCN)C(=O)N[C@@H](CCC(=O)O)C(=O)N[C@@H](CCCCN)C(N)=O)NC(=O)[C@H](CCCCN)NC(=O)[C@H](CCC(=O)O)NC(=O)[C@H](CC(=O)O)NC1=O ({Biotin-Ahx}-DLDHL[R5]DEK[R5]KLLKEK-NH2; staple (Z) 6-10) |  | inactive | 
CC(C)C[C@H](NC(=O)[C@H](CCCCN)NC(=O)[C@H](CCC(=O)O)NC(=O)[C@H](CCCCN)NC(=O)[C@H](CCC(=O)O)NC(=O)[C@H](CC(=O)O)NC(=O)CCCCCNC(=O)CCCC[C@@H]1SC[C@@H]2NC(=O)N[C@@H]21)C(=O)N[C@]1(C)CCC/C=C\CCC[C@](C)(C(=O)N[C@@H](CCC(=O)O)C(=O)N[C@@H](CC(N)=O)C(=O)N[C@@H](CC(=O)O)C(=O)N[C@@H](CCCCN)C(=O)N[C@@H](CO)C(N)=O)NC(=O)[C@H](CCCCN)NC(=O)[C@H](CCC(=O)O)NC(=O)[C@H](CCCCN)NC1=O ({Biotin-Ahx}-DEKEKL[R5]KEK[R5]ENDKS-NH2; staple (Z) 7-11) |  | inactive | Activity [8]: inactive
